`CCCCCCCCCCCCCC(=O)Nc1ccc2nc(NC(=O)c3ccccc3)sc2c1` displayed a melting point of 160 to 167 °C.

These data come from patent US20090170914A1, “Cermide Kinase Modulation” (priority 2006, published 2009).
